Data published in a melting point compilation (Tetko et al.).

With CC(C(=O)O)n1cc(Cl)cn1 (stereo unspecified) the melting point was 56 to 59 °C.
In the case of CCOC(C)c1ncc(C(=O)O)s1 (stereo unspecified), the melting point is reported as 112 to 114 °C.
Nc1c(C(=O)O)ccc2cccnc12 showed a melting point of 207 to 209 °C.
In the case of Cc1ccc(S(=O)(=O)OCC2CCN(C(=O)OC(C)(C)C)CC2)cc1, the melting point is reported as 72 to 74 °C.
In the case of O=C(O)CCCc1ccc(Br)s1, the melting point is reported as 54 to 58 °C.
NC(=S)c1ccc(NC(=O)CC2CCCC2)cc1 showed a melting point of 195 to 197 °C.
NS(=O)(=O)c1ccccc1I showed a melting point of 161 to 163 °C.
Oc1cccc(CNC2CCC(O)CC2)c1 (stereo unspecified) showed a melting point of 180 to 182 °C.
COC(=O)c1ccc2[nH]c(=O)[nH]c2c1 gave a melting point of 303 to 305 °C.
In the case of S=C(NCc1cccnc1)NCc1cccnc1, the melting point is reported as 157 to 159 °C.
NC(=S)c1ncccn1 gave a melting point of 197 to 199 °C.
With CCNC(=O)c1ccc(C)c(N)c1 the melting point was 74 to 76 °C.
In the case of Cc1ccc2[nH]nc(C(=O)O)c2c1, the melting point is reported as 273 to 275 °C.
For COc1ccc(C(N)=O)c(O)c1, the melting point was 145 to 147 °C.
Work on Cc1noc(N)n1 yielded a melting point of 161 to 163 °C.
Cc1ccc(-n2c(=O)c(N)c(C)n2C)cc1 gave a melting point of 261 to 263 °C.
Work on Cn1c(=O)c2ccccc2n2c(CCl)nnc12 yielded a melting point of 228 to 229 °C.
Work on N#Cc1cc(C(F)(F)F)ccc1N yielded a melting point of 72 to 74 °C.
Compound O=C(O)Cn1nc(-c2ccccc2)oc1=O has a melting point of 196 to 198 °C.
In the case of Cn1ncc2c1CCCC2O (stereo unspecified), the melting point is reported as 104 to 106 °C.
O=C(O)c1nc(-c2ccccc2)n(-c2ccccc2)n1 showed a melting point of 177 to 181 °C.
O=C(O)c1cccnc1Sc1ccc(Br)cc1 gave a melting point of 223 to 225 °C.
Work on COc1ccc(CCl)cc1S(C)(=O)=O yielded a melting point of 118 to 120 °C.
In the case of CC1(c2ccc(Br)cc2)NC(=O)NC1=O (stereo unspecified), the melting point is reported as 262 to 264 °C.
Compound Cc1cccc(-n2nc(C(=O)O)cc2-c2ccc(-c3ccccc3)cc2)c1 has a melting point of 215 to 217 °C.
Work on O=C(O)C1CCN(c2nc3ccccc3o2)CC1 yielded a melting point of 147 to 149 °C.
With CNc1ccc(Br)cn1 the melting point was 69 to 71 °C.
O=C(O)C(Oc1ccccc1Br)c1ccccc1 (stereo unspecified) showed a melting point of 143 to 145 °C.
Work on COc1ccc(OC)c(C(O)CN)c1 (stereo unspecified) yielded a melting point of 96 to 98 °C.
For CCOc1ccc(S(=O)(=O)N2CCOCC2)cc1N, the melting point was 165 to 167 °C.
O=C1Nc2c(cccc2C(F)(F)F)C1=O gave a melting point of 187 to 189 °C.
With CCNC(=O)NC(C)(C)C(=O)O the melting point was 150 to 152 °C.
Compound CCCCCC(=O)Nc1ccc(C(=O)CCl)cc1 has a melting point of 179 to 181 °C.
With CCc1ccc(C(=O)CCl)s1 the melting point was 52 to 54 °C.
Cc1ccc(C(=O)CC#N)c(C)c1 showed a melting point of 78 to 80 °C.
CN(C)S(=O)(=O)c1ccc(N2CCCCC2)c(C(=O)O)c1 gave a melting point of 135 to 137 °C.
For Nc1ccc(S(=O)(=O)Nc2ccc(F)cc2F)cc1, the melting point was 162 to 164 °C.
COc1ccc(/C=C/C(=O)O)cc1S(=O)(=O)Cl showed a melting point of 184 to 186 °C.
Work on O=C(CCCl)N1CCN(c2ccc(F)cc2)CC1 yielded a melting point of 99 to 101 °C.
CN(CC(=O)O)S(=O)(=O)c1ccc(Br)cc1 showed a melting point of 179 to 181 °C.
CCn1c(=O)n(CC(=O)O)c2ccccc21 gave a melting point of 229 to 231 °C.
O=C(O)c1c[nH]c2ccc(F)cc12 gave a melting point of 225 to 227 °C.
O=C(c1c[nH]c2ccccc12)N1CCCC1 gave a melting point of 229 to 231 °C.
Compound Cc1nc(-c2ccccc2)ccc1C(=O)O has a melting point of 190 to 192 °C.
For NNc1ccc([N+](=O)[O-])cc1Cl, the melting point was 145 to 147 °C.
For Cc1nc(Cl)c(C)c(-n2cccn2)n1, the melting point was 61 to 63 °C.
Work on Nc1cc([N+](=O)[O-])ccc1Sc1cccs1 yielded a melting point of 94 to 96 °C.
For CCc1ccc(C(=O)O)cc1[N+](=O)[O-], the melting point was 158 to 160 °C.
Nc1nc(-c2cccs2)ns1 showed a melting point of 163 to 165 °C.
For O=C1COc2cc([N+](=O)[O-])ccc2N1, the melting point was 225 to 227 °C.
For O=C(O)c1cnc2cc3c(cc2c1O)OCCO3, the melting point was 274 to 276 °C.
For CC(C)(C)OC(=O)NC(C(=O)O)c1ccccc1 (stereo unspecified), the melting point was 113 to 115 °C.
Compound N#Cc1cc2ccccc2nc1Br has a melting point of 179 to 181 °C.
CNc1cccc2ncccc12 gave a melting point of 125 to 127 °C.
Compound CN(CC#N)C(=O)c1ccccc1 has a melting point of 73 to 75 °C.
Work on O=C1CCCc2cc(S(=O)(=O)Cl)ccc2N1 yielded a melting point of 208 to 210 °C.
Compound O=C(O)CCCCOc1ccc2oc3ccccc3c2c1 has a melting point of 114 to 116 °C.
Compound CC1(c2ccc(Br)cc2)NC(=O)N(CC(=O)O)C1=O (stereo unspecified) has a melting point of 247 to 249 °C.
In the case of N#CCc1csc(-c2ccccc2)n1, the melting point is reported as 57 to 59 °C.
For O=S(=O)(Cl)CCOc1ccccc1, the melting point was 37 to 39 °C.
In the case of NNC(=O)c1cnccn1, the melting point is reported as 170 to 172 °C.
Work on O=C1NC(=O)C(Cc2c[nH]c3ccccc23)N1 (stereo unspecified) yielded a melting point of 235 to 237 °C.
Compound Cc1cccnc1CC(=O)C(F)(F)F has a melting point of 121 to 123 °C.
Work on O=C(O)c1nc(-c2cccs2)n(-c2ccc(F)cc2)n1 yielded a melting point of 196 to 198 °C.
In the case of COc1cc2c(cc1OC)NCC2, the melting point is reported as 103 to 105 °C.
Nc1nnc(-c2ccc(F)cc2F)o1 showed a melting point of 232 to 234 °C.
Sc1nccn1Cc1ccccn1 gave a melting point of 173 to 175 °C.
In the case of CC(C)(C)c1nonc1N, the melting point is reported as 90 to 92 °C.
For CC(=O)N(C)c1ccccc1N, the melting point was 146 to 148 °C.
Compound CC(C)(C)c1cc(C(=O)O)c(O)c(C(C)(C)C)c1 has a melting point of 157 to 162 °C.
For CNS(=O)(=O)Cc1cc(C)on1, the melting point was 69 to 71 °C.
